Measured values: paper PMC9218685, “Legume Plant Peptides as Sources of Novel Antimicrobial Molecules Against Human Pathogens” (Frontiers in Molecular Biosciences, 2022)
Converted amounts (≈) assume the structure as drawn. “Also recorded” adds a separate entry of the source. Peptide text beside a SMILES is read from it.

Tests used:
[1] = system: C. albicans; test: Scanning electron microscopy of cell morphology; format: cell-based, Candida albicans; conditions: 30 min treatment, peptide 1.6, 3.125 or 25 µM as in Figure 4 legend
Protocol: (§1) A. baumannii and C. albicans were grown and treated the same way as for the membrane permeability assay. Cells were then fixed with 2.5% (v/v) glutaraldehyde in phosphate buffered saline (PBS, pH 7.4). 5 μl of the above bacterial and yeast suspensions were spotted on a silicon disk coated with 0.01% Poly-L-Lysine. The filters were washed twice with PBS and gradually dehydrated with ethanol series (30, 50, 70, 80%, and three times 100% ethanol, each for minimum 30 min). The samples were dried with a critical point dryer (K850: Quorum Technologies Ltd.), followed by 12 nm gold coating and observed under a JEOL JSM-7100F/LV scanning electron microscope.

[2] = system: E. coli, S. enteritidis, P. aeruginosa, L. monocytogenes, S. aureus, E. faecalis, K. pneumoniae and A. baumannii; test: Antimicrobial activity assay, spectrum over the eight tested pathogenic bacteria; format: cell-based; conditions: 3 h treatment of ~10^7 log phase bacteria, peptides 25 to 0.8 µM; active = MBC ≤25 µM
Procedure, shortened: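 MBC taken as the lowest peptide concentration leaving no viable bacteria after 3 h exposure of ~10^7 log-phase cells. Peptides tested by 2-fold serial dilution, 25 µM down to 0.8 µM, in PPB (pH 7.4). Gram-positive and Gram-negative reference strains from ATCC, NCTC and HNCMO collections.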

[3] = system: Lambda DNA/HindIII marker; test: Gel retardation assay (DNA aggregation); format: binding; conditions: 100 ng DNA, 5 or 10 µM peptide in water, 30 min at room temperature, 1% agarose gel
Protocol: Interactions of peptides with DNA was visualized with gel retardation assay ([Hsu et al., 2005]). 100 ng Lambda DNA/HindIII marker (ThermoFisher Scientific) was incubated with 0, 5 or 10 µM synthetic NCRs or NCR derivatives in water for 30 min at room temperature and then loaded into 1% agarose gel. Electrophoresis of DNA fragments separated the mobile HindIII-digested DNA fragments while the aggregated DNA remained in the loading wells.
FIGURE 6 Aggregation of DNA by NCR peptides. Lambda HindIII digested DNA was incubated without (0) or with NCR peptides at 5 or 10 μM concentration.

[4] = system: A. baumannii; test: Scanning electron microscopy of cell morphology; format: cell-based, Acinetobacter baumannii; conditions: 30 min treatment, peptide 1.6 or 3.125 µM as in Figure 3 legend
Protocol: as §1
FIGURE 3 Viability, membrane permeability and morphology of A. baumannii cells after NCR treatment (A–L) SYTO9/PI staining observed with confocal microscope, (M–X) Cell morphology observed with SEM. (A,M) untreated control, (B,N) CaNCR13, 3.125 µM, (C,O) CaNCR63, 3.125 µM, (D,P) CaNCR63_1-20, 3.125 µM, (E,Q) CaNCR63_15-34, 3.125 µM, (F,R) MsNCR443, 3.125 µM, (G,S) MsNCR463_16-35, 1.6 µM, (H,T) MsNCR463_17-30, 3.125 µM, (I,U) PsNCR349, 1.6 µM, (J,V) PsNCR349_26-50, 3.125 µM, (K,W) PsNCR349_31-50, 3.125 µM, (L,X) PsNCR352, 1.6 µM.

[5] = system: Acinetobacter baumannii (ATCC 17978); test: microbe, parasite or virus in culture; format: cell-based; conditions: for MBC Acinetobacter baumannii: ATCC 17978, 3 h
Procedure, shortened: (§2)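 MBC read as lowest peptide concentration giving no viable bacteria; ~10^7 log-phase cells, PPB pH 7.4, 3 h treatment, 2-fold dilutions from 25 µM.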

[6] = system: Staphylococcus aureus (HNCMO112011); format: cell-based; conditions: HNCMO112011, 3 h
Procedure, shortened: as §2

[7] = system: Escherichia coli (ATCC 8739); format: cell-based; conditions: ATCC 8739, 3 h
Procedure, shortened: as §2

[8] = system: Klebsiella pneumoniae (NCTC 13440); format: cell-based; conditions: NCTC 13440, 3 h
Procedure, shortened: as §2

[9] = system: Listeria monocytogenes (ATCC 19111); format: cell-based; conditions: ATCC 19111, 3 h
Procedure, shortened: as §2

[10] = system: Salmonella enterica (ATCC 13076); format: cell-based; conditions: ATCC 13076, 3 h
Procedure, shortened: as §2

[11] = system: Pseudomonas aeruginosa (ATCC 27853); format: cell-based; conditions: ATCC 27853, 3 h
Procedure, shortened: as §2

[12] = system: Enterococcus faecalis (ATCC 29212); format: cell-based; conditions: for Ability to kill E. faecalis: 3 h, ~10^7 log phase bacteria, peptides ≤25 µM; for MBC Enterococcus faecalis: ATCC 29212, 3 h
Procedure, shortened: as §2

For `CC[C@H](C)[C@H](NC(=O)[C@H](CCCNC(=N)N)NC(=O)[C@@H](NC(=O)[C@H](CS)NC(=O)[C@H](CCCCN)NC(=O)[C@H](CS)NC(=O)[C@H](Cc1ccccc1)NC(=O)CNC(=O)[C@H](CC(N)=O)NC(=O)[C@@H](NC(=O)[C@H](CS)NC(=O)[C@H](CCCCN)NC(=O)[C@@H]1CCCN1C(=O)[C@@H](NC(=O)[C@H](CCCCN)NC(=O)[C@@H]1CCCN1C(=O)[C@H](CCCCN)NC(=O)[C@H](CCCNC(=N)N)NC(=O)[C@H](CS)NC(=O)[C@H](C)NC(=O)[C@H](Cc1ccccc1)NC(=O)[C@H](CCCCN)NC(=O)[C@H](CCCCN)NC(=O)[C@H](CS)NC(=O)[C@H](CC(=O)O)NC(=O)[C@H](CCCCN)NC(=O)[C@H](CC(=O)O)NC(=O)[C@H](CO)NC(=O)[C@H](CCC(N)=O)NC(=O)[C@H](CS)NC(=O)[C@@H]1CCCN1C(=O)[C@@H](N)CCCCN)C(C)C)[C@@H](C)CC)C(C)C)C(=O)N[C@@H](Cc1c[nH]c2ccccc12)C(=O)O` [CaNCR13] (H-KPCQSDKDCKKFACRKPKVPKCINGFCKCVRIW-OH; N-terminus assumed), which “Morphology of C. albicans cells by SEM” value [1] is on record?
The value was “aggregation of shrunken cells in a spider net like matrix”.

What about the “Antibacterial spectrum over the eight tested bacterial strains” value [2] of the same compound?
Its value is “broad-spectrum activity”.

And the “Aggregation of HindIII-digested λ DNA (DNA retained in loading wells)” value [3]?
The value was “did not”.

And the “Morphology of A. baumannii cells by SEM” value [4]?
Its value is “Only dead cells were visible”.

Which “Morphology of C. albicans cells by SEM” value [1] does the source give for `CC[C@H](C)[C@H](NC(=O)[C@H](CCCCN)NC(=O)[C@H](CO)NC(=O)[C@H](CCCNC(=N)N)NC(=O)[C@@H]1CCCN1C(=O)[C@H](CS)NC(=O)[C@H](CCCNC(=N)N)NC(=O)[C@H](Cc1ccc(O)cc1)NC(=O)[C@H](CCCCN)NC(=O)[C@H](CCCCN)NC(=O)[C@H](CS)NC(=O)[C@H](CC(=O)O)NC(=O)[C@@H](NC(=O)[C@H](CCCNC(=N)N)NC(=O)[C@@H](NC(=O)[C@H](CCCCN)NC(=O)[C@H](CS)NC(=O)[C@@H](NC(=O)[C@H](CCSC)NC(=O)[C@@H](N)CCCCN)[C@@H](C)CC)[C@@H](C)O)C(C)C)C(=O)N[C@@H](CCCCN)C(=O)N[C@@H](CC(=O)O)C(=O)N[C@@H](CS)C(=O)N[C@H](C(=O)N[C@@H](CCCCN)C(=O)NCC(=O)N[C@@H](Cc1ccc(O)cc1)C(=O)N[C@@H](CS)C(=O)N[C@@H](CCCNC(=N)N)C(=O)N[C@@H](CS)C(=O)N[C@H](C(=O)N[C@@H](CCCNC(=N)N)C(=O)N[C@@H](CCCCN)C(=O)N[C@@H](CCCCN)C(=O)O)C(C)C)C(C)C` [CaNCR63] (H-KMICKTRVDCKKYRCPRSKIKDCVKGYCRCVRKK-OH; N-terminus assumed) here?
Its value is “Flattening of cells; also recorded: aggregation of shrunken cells in a spider net like matrix”.

And the “Antibacterial spectrum over the eight tested bacterial strains” value [2]?
Its value is “broad-spectrum activity”.

What about the “Aggregation of HindIII-digested λ DNA (DNA retained in loading wells)” value [3] of the same compound?
Its value is “DNA remained in the wells”.

And the MBC ([5]; ~10^7 log phase bacteria, Potassium-Phosphate Buffer pH 7.4, 3 h treatment, two-fold dilution series, lowest concentration completely eliminating viable bacteria, read-out: MBC, minimal bactericidal concentration against A. baumannii)?
The MBC was 6.25 µM (≈ 25.8 µg/mL).

What about the “Morphology of A. baumannii cells by SEM” value [4] of the same compound?
Its value is “rough cell surface, lysis and flattening of the cells”.

Which results are given for `CC[C@H](C)[C@H](NC(=O)[C@H](CCC(N)=O)NC(=O)[C@H](CCCCN)NC(=O)[C@H](CCCNC(=N)N)NC(=O)[C@@H](NC(=O)[C@H](Cc1ccccc1)NC(=O)[C@H](Cc1ccccc1)NC(=O)[C@H](Cc1ccc(O)cc1)NC(=O)[C@H](Cc1c[nH]cn1)NC(=O)[C@H](CS)NC(=O)[C@H](Cc1ccccc1)NC(=O)[C@H](CCCCN)NC(=O)CNC(=O)[C@@H](NC(=O)[C@H](CS)NC(=O)[C@H](CCSC)NC(=O)[C@H](CCSC)NC(=O)[C@@H](NC(=O)[C@@H](NC(=O)[C@@H]1CCCN1C(=O)[C@H](CCCCN)NC(=O)[C@@H](NC(=O)[C@@H](NC(=O)[C@H](CCCCN)NC(=O)[C@@H]1CCCN1C(=O)[C@H](CS)NC(=O)[C@H](CC(=O)O)NC(=O)[C@H](CC(=O)O)NC(=O)[C@@H](NC(=O)[C@@H](NC(=O)[C@H](C)NC(=O)[C@H](CS)NC(=O)[C@H](CCCNC(=N)N)NC(=O)[C@@H](NC(=O)[C@H](CC(=O)O)NC(=O)[C@H](CC(C)C)NC(=O)[C@H](CCCCN)NC(=O)[C@@H](N)CCC(=O)O)[C@@H](C)CC)[C@@H](C)O)C(C)C)C(C)C)[C@@H](C)O)C(C)C)C(C)C)[C@@H](C)O)C(C)C)C(=O)N[C@@H](CC(C)C)C(=O)O` [NCR073] (H-EKLDIRCATVDDCPKVTKPVVMMCTGKFCHYFFVRKQIL-OH; N-terminus assumed)?
MBC Staphylococcus aureus [6]: 6.25 µM (≈ 28.5 µg/mL); MBC Escherichia coli [7]: 3.125 µM (≈ 14.3 µg/mL); MBC Klebsiella pneumoniae [8]: 6.25 µM (≈ 28.5 µg/mL); MBC Listeria monocytogenes [9]: 6.25 µM (≈ 28.5 µg/mL); MBC Salmonella enterica [10]: 6.25 µM (≈ 28.5 µg/mL); MBC Pseudomonas aeruginosa [11]: 6.25 µM (≈ 28.5 µg/mL); Ability to kill E. faecalis [12]: able to kill; MBC Enterococcus faecalis [12]: 6.25 µM (≈ 28.5 µg/mL); Antibacterial spectrum over the eight tested bacterial strains [2]: capable of killing all tested bacteria; also recorded: active against all the eight tested pathogens; MBC Acinetobacter baumannii [5]: 1.6 µM (≈ 7.3 µg/mL)

Which results are given for `CC[C@H](C)[C@H](N)C(=O)N[C@@H](Cc1ccc(O)cc1)C(=O)N[C@@H](Cc1ccccc1)C(=O)N[C@@H](CCCNC(=N)N)C(=O)N[C@@H](CCCCN)C(=O)N1CCC[C@H]1C(=O)N1CCC[C@H]1C(=O)N1CCC[C@H]1C(=O)N[C@@H](CS)C(=O)N[C@H](C(=O)N[C@H](C(=O)N[C@@H](CC(=O)O)C(=O)N[C@@H](CCCCN)C(=O)N[C@@H](CC(=O)O)C(=O)N[C@@H](CS)C(=O)N1CCC[C@H]1C(=O)N[C@@H](CCC(N)=O)C(=O)N[C@@H](CCSC)C(=O)N[C@@H](CCCCN)C(=O)N[C@H](C(=O)N[C@@H](CC(N)=O)C(=O)N[C@@H](CC(N)=O)C(=O)N[C@H](C(=O)N[C@@H](CCCNC(=N)N)C(=O)N[C@@H](CS)C(=O)N[C@@H](CCCNC(=N)N)C(=O)N[C@@H](CCCCN)C(=O)NCC(=O)N[C@@H](Cc1ccccc1)C(=O)N[C@@H](CS)C(=O)N[C@H](C(=O)N[C@@H](CCC(N)=O)C(=O)N[C@H](C(=O)N[C@@H](Cc1c[nH]cn1)C(=O)N[C@@H](CCCCN)C(=O)N[C@@H](Cc1ccccc1)C(=O)N[C@H](C(=O)N1CCC[C@H]1C(=O)O)[C@@H](C)O)[C@@H](C)CC)[C@@H](C)CC)C(C)C)[C@@H](C)CC)[C@@H](C)O)[C@@H](C)CC` [NCR358] (H-IYFRKPPPCITDKDCPQMKINNVRCRKGFCIQIHKFTP-OH; N-terminus assumed)?
MBC Staphylococcus aureus [6]: 3.125 µM (≈ 14.2 µg/mL); MBC Escherichia coli [7]: 1.6 µM (≈ 7.26 µg/mL); MBC Klebsiella pneumoniae [8]: 25 µM (≈ 113 µg/mL); MBC Listeria monocytogenes [9]: 3.125 µM (≈ 14.2 µg/mL); MBC Salmonella enterica [10]: 3.125 µM (≈ 14.2 µg/mL); MBC Pseudomonas aeruginosa [11]: 3.125 µM (≈ 14.2 µg/mL); Ability to kill E. faecalis [12]: able to kill; MBC Enterococcus faecalis [12]: 6.25 µM (≈ 28.4 µg/mL); Antibacterial spectrum over the eight tested bacterial strains [2]: capable of killing all tested bacteria; also recorded: active against all the eight tested pathogens; MBC Acinetobacter baumannii [5]: 3.125 µM (≈ 14.2 µg/mL)
